Reference: patent US12492232B2, “Methods for producing proteins” (South Australian Health and Medical Research Institute …, priority 2018, dated 2025)
Entries after “also recorded” stand apart in the source; their conditions may differ.

Experiments:
[1] = system: TSC1/TSC2; test: GAP assay: TSC1/TSC2-promoted hydrolysis of GTP bound to recombinant GST-Rheb; format: biochemical; settings: FLAG-TSC1, FLAG-TSC2, [α-32P]GTP, n=3
Excerpt: FIGS. 1A-1B: Recombinant GST-Rheb proteins were subjected to GAP assay in the presence of FLAG-TSC1, FLAG-TSC2 and [α-^32P] GTP. GST-Rheb bound to GDP or GTP was pulled down using glutathione beads and the nucleotides were then separated by thin-layer chromatography and visualized by phosphorimager. The positions of GDP and GTP are shown (FIG. 1A). […] FIGS. 1C-1D: CHO cells were co-transfected using Lipofectamine 3000 with vectors encoding wildtype (WT) Rheb or the indicated mutants and TSC1/2 as indicated. 36 h after transfection, cells were transferred to Ham's F12 media lacking FBS for 16 h. Cells were the transferred to Dulbecco's phosphate-buffered saline (D-PBS, which lacks amino acids) for 1 h before cell lysates were harvested for SDS-PAGE and Western Blotting analysis using the indicated antibodies. […] This effect is consistent with lack of sensitivity of the mutant Rhebs to TSC1/TSC2. Thus the Rheb mutants S21L, T23M, G29S, Y35N and E40K promote mTORC1 signalling in the absence of upstream activation due to insensitivity to the GAP activity of the TSC complex.
A) Recombinant GST-Rheb proteins were subjected to GTPase assays in the presence of FLAG-TSC1, FLAG-TSC2 and [α-^32P]GTP. Nucleotide-bound GST-Rheb was purified from the reaction mixture using 20 μl glutathione bead slurry. Radioactive GDP and GTP were separated by thin-layer chromatography and visualized by phosphorimager.

[2] = system: mTORC1 signalling; test: mTORC1 signalling (Western blot, S6K1 and rpS6) in transfected CHO cells starved of serum and amino acids, with or without TSC1/2 co-transfection; format: cell-based
Method: GTP. GST-Rheb bound to GDP or GTP was pulled down using glutathione beads and the nucleotides were then separated by thin-layer chromatography and visualized by phosphorimager. The positions of GDP and GTP are shown (FIG. 1A). […] FIGS. 1C-1D: CHO cells were co-transfected using Lipofectamine 3000 with vectors encoding wildtype (WT) Rheb or the indicated mutants and TSC1/2 as indicated. 36 h after transfection, cells were transferred to Ham's F12 media lacking FBS for 16 h. Cells were the transferred to Dulbecco's phosphate-buffered saline (D-PBS, which lacks amino acids) for 1 h before cell lysates were harvested for SDS-PAGE and Western Blotting analysis using the indicated antibodies.

[3] = system: ExpiCHO-S™ cells; test: Rabbit IgG secretion by ExpiCHO-S cells stably expressing Rheb variants (Easy-Titer Rabbit IgG Assay); format: cell-based; settings: single replicate; compared to Rheb-WT or Rheb-Y35N
Method: Materials and Methods: ExpiCHO-S™ cells were purchased from ThermoFischer Scientific and cultured in ExpiCHO™ Expression Medium at 37° C. at 8% CO2. […] Transfected cells were grown in 600 μg/mL […] for 6 weeks. Surviving cells were plated as single cells in a 96-well plate and monoclonal colonies selected for FLAG-Rheb expression.
Rabbit IgG secretion was determined using the ExpiCHO™ Expression system according to the manufacturer's instructions. Briefly, ExpiCHO™ cells expressing either endogenous Rheb or stably expressing exogenous Rheb were seeded at 6×10^6 cells/mL in 25 mL of ExpiCHO™ Expression Medium and transfected with 20 μg of a pcDNA3.1 vector encoding heavy and light chains of Rabbit IgG at a 1:2 ratio of heavy chain:light chain using ExpiFectamine™ CHO Reagent. 24 hours after transfection, cells were feed with ExpiCHO™ Feed and ExpiFectamine™ CHO Enhancer and transferred to 32° C., 5% CO2. Cells were allowed to grow for 10 days with 100 μL samples taken every day. After 10 days, Cells were pelleted by centrifugation at 4000×g for 30 minutes at 4° C. and the supernatant filtered through a […] PVFD filter and collected. IgG yield was determined using Easy-Titer™ Rabbit IgG Assay kit and calculated from a standard curve.

Substance: Rheb-T23M: human Rheb protein with a methionine variant at residue 23 (T23M), SEQ ID NO. 3
- hydrolysis of GTP bound to Rheb promoted by TSC1/TSC2 [1]: completely unable to promote hydrolysis of GTP; also recorded: did not promote hydrolysis of GTP
- mTORC1 signalling in the absence of upstream activation ([2]; no serum 16 h, D-PBS 1 h, compared to empty vector and Rheb-WT): increased mTORC1 signalling over both the empty vector and Rheb-WT
- mTORC1 signalling when co-transfected with TSC1/TSC2 ([2]; no serum and amino acids, co-transfected with TSC1/TSC2): no reduction
- rate of IgG secretion determined daily over 10 days [3]: maintain a constant rate of IgG secretion over a longer period
